This note sets out measurements from patent publication US10125134B2 (Mirati Therapeutics, Inc., priority 2016, dated 2018).

Read-outs that look alike come from different tables or passages of the source.

For assay [1], the system named is NCI-H358 cells (express KRas G12C), Phospho-ERK. The experiment in a line: Cellular inhibition of KRas G12C: Phospho-ERK in NCI-H358 cells. In kind it is cell-based. The note with it: Homo sapiens, pERK(Thr202/Tyr204) normalized with GAPDH, NCI-H358 cells, 3 hours, read-out: IC50. A digest of the protocol: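 IC50 derived by 4-parameter fit of GAPDH-normalized pERK(Thr202/Tyr204) signal, as percent of DMSO control. Signal came from in-cell immunodetection with infrared secondaries after 3 h compound exposure of KRas G12C NCI-H358 cells at 0.5% DMSO.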

For a further assay, the target named is KRas G12C (Homo sapiens, UniProt P01116, C118S/C51S/C80L/G12C). The experiment in a line: KRas G12C Modification Assay (LCMS detection of covalent adduct). The note with it: normalized percent of control; tested at 5 μM concentration for 3 hours. In kind it is binding. Put shortly:
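Covalent modification was read by reverse-phase LC/MS of intact protein after compound exposure, each reaction stopped at its time point with 25 mM acetic acid. Unmodified-protein signal, taken as percent of total, was normalised to untreated protein and reported as POC.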

A word on the IC50: it is the concentration that inhibits the measured activity by half. For `C=CC(=O)N1CCN(c2nc(OC[C@@H]3CCCCN3C)nc3c2CCN(c2cc(O)cc4ccccc24)C3)CC1` [Example 196, (S)-1-(4-(7-(3-hydroxynaphthalen-1-yl)-2-((1-methylpiperidin-2-yl)methoxy)-5,6,7,8-tetrahydropyrido[3,4-d]pyrimidin-4-yl)piperazin-1-yl)prop-2-en-1-one], the IC50 in assay [1] (NCI-H358, 3 h) fell in the range of 0.1 to 1000 nM. In addition, at KRas G12C, the POC entry is reported as “C (“C”>50% POC)”.
The like results for `C=CC(=O)N1CCN(c2nc(OC[C@@H]3CCCN3CC)nc3c2CCN(c2cc(O)cc4ccccc24)C3)CC1` [Example 197, (S)-1-(4-(2-((1-ethylpyrrolidin-2-yl)methoxy)-7-(3-hydroxynaphthalen-1-yl)-5,6,7,8-tetrahydropyrido[3,4-d]pyrimidin-4-yl)piperazin-1-yl)prop-2-en-1-one] were, in that order, 0.1 to 1000 nM and “C (“C”>50% POC)”.
Regarding `C/C=C/C(=O)N1CCN(c2nc(OC[C@@H]3CCCN3C)nc3c2CCN(c2cc(O)cc4ccccc24)C3)CC1` [Example 198, (S,E)-1-(4-(7-(3-hydroxynaphthalen-1-yl)-2-((1-methylpyrrolidin-2-yl)methoxy)-5,6,7,8-tetrahydropyrido[3,4-d]pyrimidin-4-yl)piperazin-1-yl)but-2-en-1-one], the IC50 in assay [1] (NCI-H358, 3 h) is over 1000 nM. The POC result at KRas G12C is on record as “C (“C”>50% POC)”.
Taken in the same sequence, the figures for `CN(C)C/C=C/C(=O)N1CCN(c2nc(OC[C@@H]3CCCN3C)nc3c2CCN(c2cc(O)cc4ccccc24)C3)CC1` [Example 199, (S,E)-4-(dimethylamino)-1-(4-(7-(3-hydroxynaphthalen-1-yl)-2-((1-methylpyrrolidin-2-yl)methoxy)-5,6,7,8-tetrahydropyrido[3,4-d]pyrimidin-4-yl)piperazin-1-yl)but-2-en-1-one] were over 1000 nM and “C (“C”>50% POC)”.
As to `C=CC(=O)N1CCN(c2nc(OC[C@@H]3CCCN3C)nc3c2CCN(c2cccc4ccccc24)C3)C[C@H]1C` [Example 201, 1-((R)-2-methyl-4-(2-(((S)-1-methylpyrrolidin-2-yl)methoxy)-7-(naphthalen-1-yl)-5,6,7,8-tetrahydropyrido[3,4-d]pyrimidin-4-yl)piperazin-1-yl)prop-2-en-1-one], the IC50 in assay [1] (NCI-H358, 3 h) is over 1000 nM. Moreover, the POC result on KRas G12C is “B (“B”>25% POC−≤50% POC)”.
Taken in the same sequence, the figures for `C=CC(=O)N1CCN(c2nc(OC[C@@H]3CCCN3C)nc3c2CCN(c2cc(O)cc4ccccc24)C3)[C@@H](C)C1` [Example 202, 1-((S)-4-(7-(3-hydroxynaphthalen-1-yl)-2-(((S)-1-methylpyrrolidin-2-yl)methoxy)-5,6,7,8-tetrahydropyrido[3,4-d]pyrimidin-4-yl)-3-methylpiperazin-1-yl)prop-2-en-1-one] were 0.1 to 1000 nM and “C (“C”>50% POC)”.
Taken in the same sequence, the figures for `C=CC(=O)N1CCN(c2nc(OC[C@H]3CCCN3C)nc3c2CCN(c2cc(O)cc4ccccc24)C3)[C@@H](C)C1` [Example 203, 1-((S)-4-(7-(3-hydroxynaphthalen-1-yl)-2-(((R)-1-methylpyrrolidin-2-yl)methoxy)-5,6,7,8-tetrahydropyrido[3,4-d]pyrimidin-4-yl)-3-methylpiperazin-1-yl)prop-2-en-1-one] were 0.1 to 1000 nM and “C (“C”>50% POC)”.
For the compound `C=CC(=O)N1CCN(c2nc(NC3CCN(C4CC4)CC3)nc3c2CCN(c2cc(O)cc4ccccc24)C3)CC1` [Example 204, 1-(4-(2-((1-cyclopropylpiperidin-4-yl)amino)-7-(3-hydroxynaphthalen-1-yl)-5,6,7,8-tetrahydropyrido[3,4-d]pyrimidin-4-yl)piperazin-1-yl)prop-2-en-1-one], in assay [1], the IC50 is over 1000 nM. The POC entry at KRas G12C is given as “C (“C”>50% POC)”.
Take `C=CC(=O)N1CCN(c2nc(OCCCN3CCOCC3)nc3c2CCN(c2cc(O)cc4cccnc24)C3)CC1` [Example 205, 1-(4-(7-(6-hydroxyquinolin-8-yl)-2-(3-morpholinopropoxy)-5,6,7,8-tetrahydropyrido[3,4-d]pyrimidin-4-yl)piperazin-1-yl)prop-2-en-1-one]: the IC50 in assay [1] was over 1000 nM. At KRas G12C, the POC entry is “C (“C”>50% POC)”.
Taken in the same sequence, the figures for `C=CC(=O)N1CCN(c2nc(OCCCN3CC4CC4C3)nc3c2CCN(c2cc(O)cc4ccccc24)C3)CC1` (stereo not drawn) [Example 206, 1-(4-(2-(3-(3-azabicyclo[3.1.0]hexan-3-yl)propoxy)-7-(3-hydroxynaphthalen-1-yl)-5,6,7,8-tetrahydropyrido[3,4-d]pyrimidin-4-yl)piperazin-1-yl)prop-2-en-1-one] were 0.1 to 1000 nM and “C (“C”>50% POC)”.
The like results for `C=CC(=O)N1CCN(c2nc(OCCN3CCC[C@@H](F)C3)nc3c2CCN(c2cc(O)cc4ccccc24)C3)CC1` [Example 207, (R)-1-(4-(2-(2-(3-fluoropiperidin-1-yl)ethoxy)-7-(3-hydroxynaphthalen-1-yl)-5,6,7,8-tetrahydropyrido[3,4-d]pyrimidin-4-yl)piperazin-1-yl)prop-2-en-1-one] were, in that order, over 1000 nM and “C (“C”>50% POC)”.
The like results for `C=CC(=O)N1CCN(c2nc(OCCCN3C[C@@H](F)[C@@H](F)C3)nc3c2CCN(c2cc(O)cc4ccccc24)C3)CC1` [Example 208, 1-(4-(2-(3-((3R,4S)-3,4-difluoropyrrolidin-1-yl)propoxy)-7-(3-hydroxynaphthalen-1-yl)-5,6,7,8-tetrahydropyrido[3,4-d]pyrimidin-4-yl)piperazin-1-yl)prop-2-en-1-one] were, in that order, over 1000 nM and “C (“C”>50% POC)”.
On to `C=CC(=O)N1CCN(c2nc(OCCCN3CCOCC3)nc3c2CCN(c2c(C)ccc4[nH]ccc24)C3)CC1` [Example 209, 1-(4-(7-(5-methyl-1H-indol-4-yl)-2-(3-morpholinopropoxy)-5,6,7,8-tetrahydropyrido[3,4-d]pyrimidin-4-yl)piperazin-1-yl)prop-2-en-1-one], for which the IC50 in assay [1] is over 1000 nM. Also, at KRas G12C, the POC entry is on record as “C (“C”>50% POC)”.
The like results for `C=CC(=O)N1CCN(c2nc(OC[C@@H]3CCCN3C)nc3c2CCN(c2ccccc2C(F)(F)F)C3)CC1CC#N` (stereo partly drawn) [Example 210, 2-(1-acryloyl-4-(2-(((S)-1-methylpyrrolidin-2-yl)methoxy)-7-(2-(trifluoromethyl)phenyl)-5,6,7,8-tetrahydropyrido[3,4-d]pyrimidin-4-yl)piperazin-2-yl)acetonitrile] were, in that order, 0.1 to 1000 nM and “C (“C”>50% POC)”.
For the compound `C=CC(=O)N1CCN(c2nc(OC[C@@H]3CCCN3C)nc3c2CCN(c2ccccc2OC(F)(F)F)C3)CC1CC#N` (stereo partly drawn) [Example 211, 2-(1-acryloyl-4-(2-(((S)-1-methylpyrrolidin-2-yl)methoxy)-7-(2-(trifluoromethoxy)phenyl)-5,6,7,8-tetrahydropyrido[3,4-d]pyrimidin-4-yl)piperazin-2-yl)acetonitrile], the IC50 in assay [1] (NCI-H358, 3 h) was in the range of 0.1 to 1000 nM. The POC result at KRas G12C is “C (“C”>50% POC)”.
`C=CC(=O)N1CCN(c2nc(OC[C@@H]3CCCN3C)nc3c2CCN(c2cnccc2C(F)(F)F)C3)CC1CC#N` (stereo partly drawn) [Example 212, 2-(1-acryloyl-4-(2-(((S)-1-methylpyrrolidin-2-yl)methoxy)-7-(4-(trifluoromethyl)pyridin-3-yl)-5,6,7,8-tetrahydropyrido[3,4-d]pyrimidin-4-yl)piperazin-2-yl)acetonitrile]: the IC50 in assay [1] (NCI-H358, 3 h) fell in the range of 0.1 to 1000 nM. The POC result at KRas G12C is on record as “C (“C”>50% POC)”.
`C=CC(=O)N1CCN(c2nc(OCCCN3CCOCC3)nc3c2CCN(c2cc(O)cc(C)c2C)C3)CC1` [Example 213, 1-(4-(7-(5-hydroxy-2,3-dimethylphenyl)-2-(3-morpholinopropoxy)-5,6,7,8-tetrahydropyrido[3,4-d]pyrimidin-4-yl)piperazin-1-yl)prop-2-en-1-one]: the half-maximal inhibitory concentration (IC50) in assay [1] is over 1000 nM. Moreover, the POC result at KRas G12C was “C (“C”>50% POC)”.
On to `C=CC(=O)N1CCN(c2nc(OCCCN3CCOCC3)nc3c2CCN(c2cc(O)ccc2SC(F)(F)F)C3)CC1` [Example 214, 1-(4-(7-(5-hydroxy-2-((trifluoromethyl)thio)phenyl)-2-(3-morpholinopropoxy)-5,6,7,8-tetrahydropyrido[3,4-d]pyrimidin-4-yl)piperazin-1-yl)prop-2-en-1-one], for which, in assay [1], the 50% inhibitory concentration (IC50) was over 1000 nM. In addition, the POC result at KRas G12C is “C (“C”>50% POC)”.
For the compound `C=CC(=O)N1CCN(c2nc(OC(CO)CN3CCOCC3)nc3c2CCN(c2cc(O)cc4ccccc24)C3)CC1` (stereo not drawn) [Example 217, 1-(4-(2-((1-hydroxy-3-morpholinopropan-2-yl)oxy)-7-(3-hydroxynaphthalen-1-yl)-5,6,7,8-tetrahydropyrido[3,4-d]pyrimidin-4-yl)piperazin-1-yl)prop-2-en-1-one], the IC50 in assay [1] (NCI-H358, 3 h) is over 1000 nM. The POC entry on KRas G12C was “C (“C”>50% POC)”.
Taken in the same sequence, the figures for `C=CC(=O)N1CCN(c2nc(OC[C@@H]3C[C@@H](O)CN3C)nc3c2CCN(c2cccc4ccccc24)C3)CC1CC#N` (stereo partly drawn) [Example 218, 2-(1-acryloyl-4-(2-(((2S,4R)-4-hydroxy-1-methylpyrrolidin-2-yl)methoxy)-7-(naphthalen-1-yl)-5,6,7,8-tetrahydropyrido[3,4-d]pyrimidin-4-yl)piperazin-2-yl)acetonitrile] were 0.1 to 1000 nM and “C (“C”>50% POC)”.
Taken in the same sequence, the figures for `C=CC(=O)N1CCN(c2nc(OCC3CN(C)CCN3C)nc3c2CCN(c2cc(O)cc4ccccc24)C3)CC1` (stereo not drawn) [Example 219, 1-(4-(2-((1,4-dimethylpiperazin-2-yl)methoxy)-7-(3-hydroxynaphthalen-1-yl)-5,6,7,8-tetrahydropyrido[3,4-d]pyrimidin-4-yl)piperazin-1-yl)prop-2-en-1-one] were over 1000 nM and “C (“C”>50% POC)”.
